The subject of test [1] is Staphylococcus aureus V41. The test can be described thus: MIC, standard agar-dilution assay, Staphylococcus aureus V41. In kind it is cell-based. The conditions noted are these: Staphylococcus aureus, V41.
Test [2] has as its system Streptococcus Group D X66. Kind of test: MIC, standard agar-dilution assay, Streptococcus Group D X66. Format: cell-based.
The test system of test [3] is Pasteurella multocida 60A. The test can be described thus: MIC, broth-dilution microtiter test, Pasteurella multocida 60A. Format: cell-based. The conditions noted are these: Pasteurella multocida 60A; avian isolate; broth-dilution microtiter; read-out: MIC. An excerpt: (§1) The MIC's in Table X were obtained using conventional broth-dilution microtiter tests.
In test [4] the test system is Pasteurella multocida. Kind of test: Subcutaneous treatment of Pasteurella multocida-infected chicks. Format: in vivo, one-day-old chicks. The settings on record: 30 mg/kg × 2, 1 and 4 hours post-challenge. The method, then: (§2) Many of the C-20 modified derivatives of this invention have also shown in vivo antibacterial activity against infections induced by gram-negative bacteria. Tables XII and XIII summarize the results of tests in which illustrative compounds were evaluated against Pasteurella infection in one-day-old chicks. The compounds were administered parenterally or orally after challenge of the chicks with Pasteurella multocida (0.1 ml of a 10^-4 dilution of a twenty-hour tryptose broth culture of an avian P. multocida given subcutaneously). In these tests, unless indicated otherwise, all non-medicated infected chicks died within 24 hours of Pasteurella challenge. In the tests summarized in Table XII the compounds were administered by subcutaneous injection at a dosage of 30 mg/kg, 1 and 4 hours post-challenge of the chicks with P. multocida. In the test summarized in Table XIII the compounds were administered by gavage at 1 and 5 hours post-challenge of the chicks with P. multocida.

For test [5], the system named is Streptococcus bovis 80. The test can be described thus: MIC, broth-dilution microtiter test, Streptococcus bovis 80. The conditions noted are these: Streptococcus equinus. Format: cell-based.
From the text: as §1

Test [6] deals with Staphylococcus aureus X400. The test can be described thus: MIC, standard agar-dilution assay, Staphylococcus aureus X400. In kind it is cell-based. The settings on record: Staphylococcus aureus, X400.
For test [7], the system named is Staphylococcus epidermidis EPI1. The test can be described thus: MIC, standard agar-dilution assay, Staphylococcus epidermidis EPI1. Format: cell-based.
Test [8] deals with Staphylococcus aureus. Kind of test: MIC, broth-dilution microtiter test, Staphylococcus aureus. Format: cell-based. The settings on record: broth-dilution microtiter, read-out: MIC.
From the text: as §1

Test [9] deals with Mycoplasma hyorhinis. The test can be described thus: MIC, broth-dilution microtiter test, Mycoplasma hyorhinis. Format: cell-based.
From the text: as §1

Test [10] deals with Streptococcus pyogenes C203. Kind of test: MIC, standard agar-dilution assay, Streptococcus pyogenes C203. In kind it is cell-based.
The test system of test [11] is Streptococcus Group 9960. Kind of test: MIC, standard agar-dilution assay, Streptococcus Group 9960. In kind it is cell-based. The conditions noted are these: GROUP9960.
Test [12] deals with Streptococcus pyogenes C203. The test can be described thus: In vivo protection of mice experimentally infected with S. pyogenes C203. The conditions noted are these: Streptococcus pyogenes. The method, then:
The C-20 modified derivatives of this invention have shown in vivo antimicrobial activity against experimentally-induced infections in laboratory animals. When two doses of test compound were administered to mice experimentally infected with S. pyogenes C203, the activity observed was measured as an ED50 value [effective dose in mg/kg to protect 50% of the test animals: see Warren Wick, et al., J. Bacteriol. 81, 233-235 (1961)].

Test [13] deals with Staphylococcus epidermidis EPI2. Kind of test: MIC, standard agar-dilution assay, Staphylococcus epidermidis EPI2. In kind it is cell-based.
Test [14] has as its system Haemophilus influenzae R252. Kind of test: MIC, standard agar-dilution assay, Haemophilus influenzae R252. Format: cell-based.
The test system of test [15] is Staphylococcus aureus S13E. The test can be described thus: MIC, standard agar-dilution assay, Staphylococcus aureus S13E. In kind it is cell-based. The settings on record: Staphylococcus aureus, S13E.
The subject of test [16] is Mycoplasma gallisepticum. The test can be described thus: MIC, broth-dilution microtiter test, Mycoplasma gallisepticum. The settings on record: Mycoplasmoides gallisepticum. In kind it is cell-based.
From the text: as §1

Test [17] relates to Streptococcus pneumoniae Park I. Kind of test: microbe, parasite or virus in culture. Format: cell-based.
The subject of test [18] is Haemophilus influenzae Holt. Kind of test: MIC, standard agar-dilution assay, Haemophilus influenzae Holt. In kind it is cell-based.
Test [19] concerns Staphylococcus aureus X1.1. Kind of test: MIC, standard agar-dilution assay, Staphylococcus aureus X1.1. Format: cell-based.
The test system of test [20] is Pasteurella multocida 17E. Kind of test: MIC, broth-dilution microtiter test, Pasteurella multocida 17E. In kind it is cell-based.
From the text: as §1

In test [21] the test system is Pasteurella hemolytica 22C. The test can be described thus: MIC, broth-dilution microtiter test, Pasteurella hemolytica 22C. Format: cell-based.
From the text: as §1

Test [22] deals with Mycoplasma synoviae. The test can be described thus: MIC, broth-dilution microtiter test, Mycoplasma synoviae. Format: cell-based. The settings on record: Mycoplasmopsis synoviae.
From the text: as §1

Test [23] deals with Pasteurella multocida. Kind of test: Oral (gavage) treatment of Pasteurella multocida-infected chicks. Format: in vivo, one-day-old chicks. The method, then:
as §2

Test [24] deals with Mycoplasma hyopneumoniae. Kind of test: MIC, broth-dilution microtiter test, Mycoplasma hyopneumoniae. Format: cell-based. The settings on record: Mesomycoplasma hyopneumoniae.
From the text: as §1

Setting [25] is: Streptococcus bovis 80, broth-dilution microtiter, read-out: MIC.
Setting [26] is: C203, sc, mice, subcutaneous, doses given 1 and 4 hours post-infection, read-out: ED50, Subcutaneous.
The mark [27] stands for this setting: Pasteurella hemolytica 22C, broth-dilution microtiter, read-out: MIC.
Where [28] appears, read: Staphylococcus epidermidis, EPI1.
[29] abbreviates: C203, mice, oral, doses given 1 and 4 hours post-infection, read-out: ED50, Oral.
The mark [30] stands for this setting: Staphylococcus epidermidis EPI2, agar dilution, read-out: MIC.
[31] abbreviates: Mycoplasma gallisepticum, broth-dilution microtiter, read-out: MIC.

Converted amounts (≈) assume the structure as drawn. Like-named read-outs stand apart in the source and are kept apart here.

The text below walks through data of patent US4443436A, “C-20-Modified macrolide derivatives of the macrolide antibiotics tylosin, desmycosin, macrocin, and lactenocin” (Eli Lilly and Company, priority 1982, dated 1984).

Usually ED50 stands for the midpoint of the dose-response relation.

Turning to `CCC1OC(=O)CC(O)C(C)C(OC2OC(C)C(O)C(N(C)C)C2O)C(CCOC(=O)c2nn(CC)c3cc4c(cc3c2=O)OCO4)CC(C)C(=O)C=CC(C)=CC1COC1OC(C)C(O)C(OC)C1OC` (stereo not drawn) [Compound 27, 20-DH-20-O-Cinoxacinyldesmycosin], the MIC was 4 µg/mL (≈ 3.93 µM) in test [1]; 4 µg/mL (≈ 3.93 µM) in test [2] (Streptococcus Group D X66, agar dilution, read-out: MIC); 25 µg/mL (≈ 24.6 µM) in test [3]; 0.78 µg/mL (≈ 0.766 µM) in test [5] (setting [25]); 8 µg/mL (≈ 7.86 µM) in [6]; 1 µg/mL (≈ 0.982 µM) in test [7] (Staphylococcus epidermidis EPI1, agar dilution, read-out: MIC). For the same molecule, the MIC in [8] was 3.12 µg/mL (≈ 3.06 µM); in test [9] (Mycoplasma hyorhinis, broth-dilution microtiter, read-out: MIC), 6.25 µg/mL (≈ 6.14 µM); in [10] (Streptococcus pyogenes C203, agar dilution, read-out: MIC), 0.12 µg/mL (≈ 0.118 µM); in test [11] it was 8 µg/mL (≈ 7.86 µM); in test [13] (Staphylococcus epidermidis, EPI2) it was 4 µg/mL (≈ 3.93 µM); in test [14] (Haemophilus influenzae R252, ampicillin-resistant strain, read-out: MIC), 32 µg/mL (≈ 31.4 µM). Moreover, the MIC was determined as 4 µg/mL (≈ 3.93 µM) in [15]; 1.56 µg/mL (≈ 1.53 µM) in test [16]; 0.12 µg/mL (≈ 0.118 µM) in test [17] (Streptococcus pneumoniae Park I, agar dilution, read-out: MIC); 32 µg/mL (≈ 31.4 µM) in test [18] (Haemophilus influenzae Holt, ampicillin-sensitive strain, read-out: MIC); 2 µg/mL (≈ 1.96 µM) in test [19] (Staphylococcus aureus X1.1, agar dilution, read-out: MIC); 25 µg/mL (≈ 24.6 µM) in test [20] (Pasteurella multocida 17E, bovine isolate, broth-dilution microtiter, read-out: MIC). Besides, the MIC in test [21] (setting [27]) turned out to be 50 µg/mL (≈ 49.1 µM). Also, the “Number of Deaths/Number Treated” value in test [4] is given as 6/10. Moreover, the ED50 was > 100 mg/kg in test [12] (C203, po, read-out: ED50, Oral) and < 1.5 mg/kg in test [12] (setting [26]).
Turning to `CCC1OC(=O)CC(O)C(C)C(OC2OC(C)C(O)C(N(C)C)C2O)C(CCOc2ccc([N+](=O)[O-])cc2)CC(C)C(=O)C=CC(C)=CC1COC1OC(C)C(O)C(OC)C1OC` (stereo not drawn) [Compound 34, 20-DH-20-O-(p-Nitrophenyl)desmycosin], the MIC in test [1] came out at 0.5 µg/mL (≈ 0.559 µM); in [2] it was 4 µg/mL (≈ 4.47 µM); in test [22], 0.78 µg/mL (≈ 0.871 µM); in [3], 25 µg/mL (≈ 27.9 µM); in test [5] (80), 1.56 µg/mL (≈ 1.74 µM); in [6], 1 µg/mL (≈ 1.12 µM). In addition, the MIC amounted to 0.5 µg/mL (≈ 0.559 µM) in [7] (setting [28]); 0.39 µg/mL (≈ 0.436 µM) in test [8]; 50 µg/mL (≈ 55.9 µM) in test [9] (Mycoplasma); 1 µg/mL (≈ 1.12 µM) in [10] (Streptococcus pyogenes, C203); 8 µg/mL (≈ 8.94 µM) in [11] (Streptococcus Group 9960, agar dilution, read-out: MIC); 0.12 µg/mL (≈ 0.134 µM) in [13] (setting [30]). The MIC amounted to 16 µg/mL (≈ 17.9 µM) in test [14] (Haemophilus influenzae, R252); 0.5 µg/mL (≈ 0.559 µM) in test [15]; 0.39 µg/mL (≈ 0.436 µM) in test [16] (setting [31]); 1 µg/mL (≈ 1.12 µM) in [17] (Streptococcus pneumoniae); 16 µg/mL (≈ 17.9 µM) in test [18] (Haemophilus influenzae); 12.5 µg/mL (≈ 14 µM) in test [24]. For the same molecule, the MIC in [19] (Staphylococcus aureus, X1.1) came out at 0.5 µg/mL (≈ 0.559 µM); in [20] (Pasteurella multocida, 17E), 12.5 µg/mL (≈ 14 µM); in test [21] (setting [27]), 25 µg/mL (≈ 27.9 µM). The “Number of Deaths/Number tested” value is listed as 7/10 in test [23] (0.5 g/gal equivalent) and 9/10 in [23] (1.0 g/gal equivalent). Also, the ED50 was 1.1 mg/kg in [12] (setting [26]) and 5 mg/kg in [12] (setting [29]).
For the molecule `CCC1OC(=O)CC(O)C(C)C(OC2OC(C)C(O)C(N(C)C)C2O)C(CCOc2ccc(C(=O)c3ccccc3)cc2)CC(C)C(=O)C=CC(C)=CC1COC1OC(C)C(O)C(OC)C1OC` (stereo not drawn) [Compound 37, 20-DH-20-O-(p-Benzoylphenyl)desmycosin], the MIC in [1] is 0.25 µg/mL (≈ 0.262 µM); in test [2], 0.25 µg/mL (≈ 0.262 µM); in [22] it was 1.56 µg/mL (≈ 1.63 µM); in test [3], 25 µg/mL (≈ 26.2 µM); in test [5] (setting [25]) it was 0.19 µg/mL (≈ 0.199 µM); in test [6], 0.25 µg/mL (≈ 0.262 µM). Moreover, the MIC in [7] (setting [28]) turned out to be 0.25 µg/mL (≈ 0.262 µM); in test [8], 0.19 µg/mL (≈ 0.199 µM); in [9] (Mycoplasma), 0.78 µg/mL (≈ 0.817 µM); in test [11], 0.5 µg/mL (≈ 0.524 µM); in test [13] (setting [30]) it was 0.12 µg/mL (≈ 0.126 µM); in [14] (Haemophilus influenzae, R252), 16 µg/mL (≈ 16.8 µM). In addition, the MIC amounted to 0.25 µg/mL (≈ 0.262 µM) in test [15]; 0.19 µg/mL (≈ 0.199 µM) in [16] (setting [31]); 16 µg/mL (≈ 16.8 µM) in test [18] (Haemophilus influenzae); 0.19 µg/mL (≈ 0.199 µM) in test [24] (Mycoplasma hyopneumoniae, broth-dilution microtiter, read-out: MIC); 0.25 µg/mL (≈ 0.262 µM) in test [19] (Staphylococcus aureus, X1.1); 12.5 µg/mL (≈ 13.1 µM) in [20] (Pasteurella multocida, 17E). The same molecule displayed an MIC in test [21] (Pasteurella, 22C) of 12.5 µg/mL (≈ 13.1 µM). Further, in [23] (1.5 g/gal equivalent), the “Number of Deaths/Number tested” value was 10/10. Further, the median effective dose (ED50) in test [12] (setting [26]) stood at 7.2 mg/kg; in test [12] (setting [29]) it was 18 mg/kg.
